What was measured:
[1] = Solid state stability (purity by UPLC); format: physicochemical
Protocol: Compounds 100, 101 and 102 were kept in glass vials at three different locations at temperatures of […], 2-8° C. and −20° C. in order to assess solid state stability at room temperature, refrigerated conditions and in a deep freezer. The compounds from these vials were assessed for purity by UPLC at three different timepoints 0 hrs, 24 hrs and 48 hrs. Table 2 depicts the results obtained for solid state stability at 25° C., 2-8° C. and −20° C. respectively. Purity measurements were made at 0 hrs, 24 hours and 48 hours.

[2] = Stability in solutions (pH range, simulated gastric fluid, simulated intestinal fluid); format: physicochemical
Protocol: 1 mg/ml solutions of compound 100 were prepared in each buffer, diluted to 0.1 mg/ml in methanol at each time point and analyzed as follows: Gemini C-18, 250×4.6 mm, 5 im, Mobile Phase: Methanol Isocratic Flow Rate: 0.4 mL/min.

[3] = Caco-2 permeability assay; details: human
Text: The endpoint measured is the intestinal permeability expressed as apparent permeability—Papp value. All permeability values are represented as ×10^−6 cm/sec.

Human Plasma Protein = assay: in vitro; details: human, plasma
Protocol: The test compounds were weighed and prepared as 10 mM stocks in 100% DMSO. 10 μM is the final test concentration for all compounds.
The samples were prepared by spiking test compound(s) in plasma at 10 μM final concentration. 200 μL of plasma containing the test compound was added into the donor well (RED Chamber) of the insert. Simultaneously 350 μL of dialysis buffer (1×PBS) was added into the receiver well (white chamber). Two measurements were made for each test compound. The plate was covered with a sealer and incubated at 37° C. degrees on an orbital shaker at 500 rpm for 5 hours.
After incubation, 25 μl of plasma (RED chamber) and 25 μl of buffer (white chamber) samples were separately collected into separate centrifugation tubes. Plasma and buffer samples were precipitated with 200 μL of 100% acetonitrile containing internal standards. 25 μl of T0 (T Zero) plasma samples (samples before 5 hours incubation) were collected (To samples were processed immediately after the preparation of plasma working stock solution. These samples serve as a measure for calculating the percentage recovery of the test compound and precipitated using 100% acetonitrile containing internal standards). The samples were vortexed at 1000 rpm for 5 min and centrifuged at 4000 rpm for 10 min. The supernatant was diluted 2-fold with water and injected into LC-MS/MS.
The % of Plasma bound/unbound fraction was calculated by the following equation: % Unbound or % free=100*(Fc/Tc); % Recovery=100 (Fc+Tc)/[…] where Tc=Total compound concentration as determined by the calculated concentration on the plasma side of the membrane (concentration in plasma chamber), Fc=Free compound concentration as determined by the calculated concentration on the buffer side of the membrane (concentration in buffer chamber) and T0=Total compound concentration as determined before dialysis.

human hepatocytes = assay: Human hepatocyte stability
Protocol: 10 mM stock solution of test compound was prepared in DMSO and diluted to a concentration of 1 mM with DMSO. Working concentration of 2 μM was prepared by further dilution with PBS. Preincubation mixture of 150 μL of hepatocyte cell suspension (1,000,000 cells/mL, INVITROGRO HT medium buffer), was added to vials for preincubation for 10 min @37° C.
150 μL of 2 μM working stock of the test compound was added to the cell suspension and incubated at @37 C at 500 rpm. The reaction was stopped at 0, 15, 30, 60 and 90 min by precipitating 50 μL of the incubation mixture with 150 μL of acetonitrile. Samples were vortexed for 5 min at 1200 rpm and centrifuged at 4000 rpm for 10 min. 150 μL of the supernatant was diluted with 150 μL of water and injected in MS system (SCIEX, API 4500 Q Trap) for analysis.

O=C(OC1O[C@H](CO)[C@@H](O)[C@H]1O)c1cccnc1 (stereo partly drawn) [Compound 100, (3R, 4S, 5R)-3,4-dihydroxy-5-(hydroxymethyl) tetrahydrofuran-2-yl nicotinate]
Solid State Stability (% Purity) ([1]; 2-8° C., 0 hr): 96.29%
Solid State Stability (% Purity) ([1]; 2-8° C., 24 hr): 96.32%
Solid State Stability (% Purity) ([1]; 2-8° C., 48 hr): 96.28%
Solid State Stability (% Purity) ([1]; 25° C., 0 hr): 96.02%
Solid State Stability (% Purity) ([1]; 25° C., 24 hr): 96.23%
Solid State Stability (% Purity) ([1]; 25° C., 48 hr): 96.22%
Solid State Stability (% Purity) ([1]; −20° C., 0 hr): 96.33%
Solid State Stability (% Purity) ([1]; −20° C., 24 hr): 96.32%
Solid State Stability (% Purity) ([1]; −20° C., 48 hr): 96.49%
% remaining ([2]; SGF (simulated gastric fluid), 0 h): 100.0%
% remaining ([2]; SGF (simulated gastric fluid), 1 week): 43.4%
% remaining ([2]; SGF (simulated gastric fluid), 1 h): 99.1%
% remaining ([2]; SGF (simulated gastric fluid), 2 h): 89.2%
% remaining ([2]; SGF (simulated gastric fluid), 4 h): 79.6%
% remaining ([2]; SGF (simulated gastric fluid), 8 h): 65.4%
% remaining ([2]; SGF (simulated gastric fluid), 24 h): 71.7%
% remaining ([2]; SGF (simulated gastric fluid), 48 h): 55.0%
% remaining ([2]; SIF (simulated intestinal fluid), 0 h): 100.0%
% remaining ([2]; SIF (simulated intestinal fluid), 1 week): 30.7%
% remaining ([2]; SIF (simulated intestinal fluid), 1 h): 76.4%
% remaining ([2]; SIF (simulated intestinal fluid), 2 h): 64.5%
% remaining ([2]; SIF (simulated intestinal fluid), 4 h): 41.4%
% remaining ([2]; SIF (simulated intestinal fluid), 8 h): 40.5%
% remaining ([2]; SIF (simulated intestinal fluid), 24 h): 36.7%
% remaining ([2]; SIF (simulated intestinal fluid), 48 h): 38.7%
% remaining ([2]; pH 1, 0 h): 100.0%
% remaining ([2]; pH 1, 1 week): 46.5%
% remaining ([2]; pH 1, 1 h): 100.9%
% remaining ([2]; pH 1, 2 h): 104.8%
% remaining ([2]; pH 1, 4 h): 80.7%
% remaining ([2]; pH 1, 8 h): 49.0%
% remaining ([2]; pH 1, 24 h): 53.0%
% remaining ([2]; pH 1, 48 h): 45.6%
% remaining ([2]; pH 2, 0 h): 100.0%
% remaining ([2]; pH 2, 1 week): 31.9%
% remaining ([2]; pH 2, 1 h): 91.9%
% remaining ([2]; pH 2, 2 h): 93.8%
% remaining ([2]; pH 2, 4 h): 93.0%
% remaining ([2]; pH 2, 8 h): 54.8%
% remaining ([2]; pH 2, 24 h): 28.6%
% remaining ([2]; pH 2, 48 h): 36.0%
% remaining ([2]; pH 4, 0 h): 100.0%
% remaining ([2]; pH 4, 1 week): 45.4%
% remaining ([2]; pH 4, 1 h): 95.7%
% remaining ([2]; pH 4, 2 h): 99.2%
% remaining ([2]; pH 4, 4 h): 97.9%
% remaining ([2]; pH 4, 8 h): 49.0%
% remaining ([2]; pH 4, 24 h): 42.3%
% remaining ([2]; pH 4, 48 h): 42.9%
% remaining ([2]; pH 6, 0 h): 100.0%
% remaining ([2]; pH 6, 1 week): 48.1%
% remaining ([2]; pH 6, 1 h): 92.0%
% remaining ([2]; pH 6, 2 h): 86.4%
% remaining ([2]; pH 6, 4 h): 70.9%
% remaining ([2]; pH 6, 8 h): 50.4%
% remaining ([2]; pH 6, 24 h): 55.1%
% remaining ([2]; pH 6, 48 h): 47.7%
% remaining ([2]; pH 7.4, 0 h): 100.0%
% remaining ([2]; pH 7.4, 1 week): 34.2%
% remaining ([2]; pH 7.4, 1 h): 57.1%
% remaining ([2]; pH 7.4, 2 h): 41.1%
% remaining ([2]; pH 7.4, 4 h): 37.5%
% remaining ([2]; pH 7.4, 8 h): 46.3%
% remaining ([2]; pH 7.4, 24 h): 46.0%
% remaining ([2]; pH 7.4, 48 h): 36.6%
% remaining ([2]; pH 9, 0 h): 100.0%
% remaining ([2]; pH 9, 1 week): 9.2%
% remaining ([2]; pH 9, 1 h): 17.7%
% remaining ([2]; pH 9, 2 h): 7.8%
% remaining ([2]; pH 9, 4 h): 7.6%
% remaining ([2]; pH 9, 8 h): 7.5%
% remaining ([2]; pH 9, 24 h): 6.6%
% remaining ([2]; pH 9, 48 h): 8.1%
Papp A→B [3]: 0.5 ×10⁻⁶ cm/s
Papp B→A [3]: 0.6 ×10⁻⁶ cm/s
efflux ratio [3]: 1.2
recovery ([3]; Caco-2, % Recovery A to B): 98.5%
recovery ([3]; Caco-2, % Recovery B to A): 89%
protein binding (footnote, in words) (Human Plasma Protein): Compounds 100 and 102 were not detected indicating no protein binding as shown in Table 12, above.
clearance in human hepatocytes (in words) (human hepatocytes): medium clearance
% Parent Remaining (human hepatocytes; 0 mins): 100%
% Parent Remaining (human hepatocytes; 15 mins): 97%
% Parent Remaining (human hepatocytes; 30 mins): 87.6%
% Parent Remaining (human hepatocytes; 60 mins): 73.0%
% Parent Remaining (human hepatocytes; 90 mins): 66.4%

— patent US12168673B2 (Mitopower, Inc., priority 2022, dated 2024)
